Some test systems named below: EKVX NSCLC; SNB-19 CNS; A549 NSCLC; HS 578T breast; SW-620 colon; CAKI-1 renal; KM12 colon; ACHN renal; MDA-N.
Common to all, as to assay: growth of human tumour cells (NCI), 48 h

Several values for one entry are separate records, joined by “and”; a condition that tells them apart may be missing. Equal values may be shown once.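 Each compound was tested at five concentrations against cells in 96-well plates for 48 hours. GI50 is the concentration that inhibits growth by half. At the TGI there is no net growth.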 Where only a bound is given, the exact number is not on record here.

Consider 10 compounds from PubChem BioAssay (NCI).

Turning to `CCCCCCNC(=O)Oc1ccc(/C(=C(\C)c2ccccc2)c2ccc(OCCN(CC)CC)cc2)cc1`, the GI50 in the assay with EKVX NSCLC was 6.02 µM; with SNB-19 CNS it was 4.89 µM; in the assay on A549 NSCLC, 5.11 µM; in the assay with HS 578T breast it was 2.92 µM; in the assay on SW-620 colon, 1.3 µM; in the assay with CAKI-1 renal it was 2.74 µM. Besides, the GI50 in the assay on KM12 colon is 2.84 µM; in the assay on ACHN renal, 5.99 µM. Also, the TGI stood at 12.5 µM in the assay with EKVX NSCLC; 11.1 µM with SNB-19 CNS; 11.4 µM in the assay with A549 NSCLC; 11.7 µM with HS 578T breast; 3.26 µM in the assay with SW-620 colon; 8.92 µM in the assay with CAKI-1 renal. For the same compound, the TGI with KM12 colon worked out at 10 µM; in the assay with ACHN renal, 12.2 µM.
Regarding `NS(=O)(=O)c1ccc(NC(=O)Nc2ccccc2F)cc1`, the TGI in the assay on EKVX NSCLC, in the assay on SNB-19 CNS, with A549 NSCLC, with HS 578T breast, in the assay on SW-620 colon and in the assay on CAKI-1 renal was above 100 µM throughout. Further, the TGI in the assay with KM12 colon, in the assay with MDA-N and in the assay on ACHN renal was above 100 µM throughout.
In the case of `COc1c(N2CCN(Cn3c(O)c(N=NC(=O)c4ccncc4)c4cc(F)ccc43)C(C)C2)c(F)cc2c(=O)c(C(=O)O)cn(C3CC3)c12` (stereo not given), the GI50 with EKVX NSCLC was 35.2 µM; in the assay with SNB-19 CNS it was 32.5 µM; in the assay with A549 NSCLC, above 50 µM; with HS 578T breast, 0.294 µM; in the assay with SW-620 colon it was 13.2 µM; with CAKI-1 renal, above 50 µM. For the same compound, the figures for the GI50 with KM12 colon and with ACHN renal were above 50 µM and 12.5 µM, respectively. Moreover, the TGI in the assay with EKVX NSCLC was above 50 µM; with SNB-19 CNS, above 50 µM; with A549 NSCLC, above 50 µM; with HS 578T breast, 13.8 µM; in the assay with SW-620 colon, above 50 µM; with CAKI-1 renal, above 50 µM. Besides, the TGI with KM12 colon and with ACHN renal was above 50 µM each time.
With `COc1cc([C@@H]2c3cc4c(cc3C(OC3O[C@@H]5COC(C)O[C@H]5[C@H](O)[C@H]3O)C3COC(=O)[C@@H]32)OCO4)cc(OC)c1O` (stereo not given in full), the GI50 is 11.4 µM with EKVX NSCLC; 0.836 µM in the assay on SNB-19 CNS; 0.363 µM in the assay with A549 NSCLC; 1.97 µM in the assay with HS 578T breast; 0.67 µM in the assay with SW-620 colon; 1.83 µM in the assay with CAKI-1 renal. For the same compound, the figures for the GI50 in the assay with KM12 colon and with ACHN renal were 2.46 µM and 1.27 µM, respectively. Further, the TGI was above 50 µM in the assay on EKVX NSCLC; above 47.9 µM in the assay with SNB-19 CNS; above 39.1 µM in the assay on A549 NSCLC; above 31.8 µM with HS 578T breast; above 27.2 µM in the assay on SW-620 colon; above 28.1 µM in the assay with CAKI-1 renal. The TGI was above 24.4 µM with KM12 colon and above 25 µM in the assay with ACHN renal.
Turning to `Cc1cc(O)c(C(c2ccncc2)c2c(O)cc(C)[nH]c2=O)c(=O)[nH]1`, the TGI in the assay with EKVX NSCLC, with SNB-19 CNS, in the assay with A549 NSCLC, in the assay on HS 578T breast, in the assay with CAKI-1 renal and in the assay on KM12 colon was above 100 µM each time. In addition, the TGI with MDA-N and in the assay on ACHN renal was above 100 µM throughout.
With `O=C(CCl)Nc1cc(O)c2c(c1)C(=O)c1cccc(O)c1C2=O`, the GI50 in the assay with EKVX NSCLC was 1.77 µM; in the assay with SNB-19 CNS it was 1.87 µM; in the assay on A549 NSCLC, 7.44 µM; with HS 578T breast it was 2.46 µM; with SW-620 colon, 1.1 µM; in the assay on CAKI-1 renal it was 1.56 µM. For the same compound, the GI50 in the assay with KM12 colon is 1.74 µM; in the assay on ACHN renal it was 1.55 µM. Further, the TGI in the assay on EKVX NSCLC was determined as 4.52 µM; with SNB-19 CNS, 4.15 µM; with A549 NSCLC it was 48.5 µM; with HS 578T breast, 10.6 µM; in the assay with SW-620 colon, 3.95 µM; in the assay on CAKI-1 renal it was 2.93 µM. Besides, the TGI with KM12 colon came to 3.4 µM; in the assay on ACHN renal, 2.98 µM.
In the case of `O=C(O)C(=O)CBr`, the GI50 is > 100 µM and 18.9 µM in the assay on EKVX NSCLC; above 100 µM in the assay on SNB-19 CNS; > 100 µM and 25 µM with A549 NSCLC; > 100 µM and 29.2 µM with HS 578T breast; 6.8 µM in the assay with SW-620 colon; > 32.5 µM and 14.7 µM in the assay on CAKI-1 renal. The GI50 is > 100 µM and 19 µM with KM12 colon; > 35.8 µM and 16.3 µM in the assay on ACHN renal. For the same compound, the TGI is > 100 µM and 36.7 µM in the assay with EKVX NSCLC; above 100 µM in the assay with SNB-19 CNS; > 100 µM and 52.2 µM in the assay with A549 NSCLC; > 100 µM and 72.4 µM with HS 578T breast; > 35.3 µM and 21.6 µM in the assay with SW-620 colon; > 47.3 µM and 28 µM with CAKI-1 renal. The TGI in the assay on KM12 colon is > 100 µM and 34.5 µM; in the assay with ACHN renal, > 53.9 µM and 31.6 µM.
Regarding `Cc1cc(S(=O)(=O)Nc2nc3cc(Cl)ccc3o2)c(SCc2ccccc2)cc1Cl`, the GI50 in the assay on EKVX NSCLC is 17.8 µM; with SNB-19 CNS, 21.2 µM; in the assay on A549 NSCLC, 23.8 µM; in the assay with HS 578T breast, 21 µM; in the assay on SW-620 colon, 19.2 µM; in the assay with CAKI-1 renal, 22.9 µM. In addition, the GI50 was 18.9 µM with KM12 colon and 18.5 µM in the assay on ACHN renal. Besides, the TGI turned out to be 37 µM in the assay on EKVX NSCLC; 46.9 µM with SNB-19 CNS; 59.9 µM with A549 NSCLC; 44.3 µM in the assay with HS 578T breast; 38.5 µM in the assay on SW-620 colon; 49 µM in the assay on CAKI-1 renal. In addition, the TGI in the assay on KM12 colon amounted to 45.5 µM; in the assay with ACHN renal it was 34.9 µM.
With `CC(=O)N1CCN(CCOc2ccc(C3CCN(C4=Nn5c(nnc5C(F)(F)F)CC4)CC3)cc2)CC1`, the GI50 in the assay with EKVX NSCLC was 14.7 µM; with SNB-19 CNS, 22.4 µM; in the assay with A549 NSCLC it was 41.4 µM; in the assay on HS 578T breast, 5.43 µM; in the assay with SW-620 colon, above 100 µM; in the assay with CAKI-1 renal it was 3.27 µM. Besides, the GI50 in the assay on KM12 colon is 31.5 µM; in the assay with ACHN renal it was 10.6 µM. Moreover, the TGI with EKVX NSCLC, in the assay on SNB-19 CNS, with A549 NSCLC, in the assay with HS 578T breast, with SW-620 colon and with CAKI-1 renal was above 100 µM throughout. Moreover, the TGI in the assay on KM12 colon and in the assay on ACHN renal was above 100 µM each time.
For `Cn1ncc(-c2ccc3c(=O)[nH]nc(CN)c3c2)c1-c1c(F)cc2ccccc2c1C#N`, the GI50 in the assay with EKVX NSCLC was 11.9 µM; with SNB-19 CNS, 9.44 µM; in the assay on A549 NSCLC, 5.14 µM; with HS 578T breast, 8.18 µM; in the assay on SW-620 colon it was 3.05 µM; with CAKI-1 renal, 5.53 µM. The GI50 in the assay on KM12 colon was 5 µM; in the assay on ACHN renal, 4.07 µM. Besides, the TGI was found to be 25.1 µM in the assay on EKVX NSCLC; 24.1 µM in the assay on SNB-19 CNS; 18.3 µM in the assay with A549 NSCLC; 28.7 µM in the assay with HS 578T breast; 15.1 µM with SW-620 colon; 19 µM with CAKI-1 renal. For the same compound, the TGI in the assay with KM12 colon worked out at 17.4 µM; in the assay with ACHN renal, 16.5 µM.
